Laboratory results taken from patent publication US20160158200A1, “Combinations of Hepatitis C Virus Inhibitors” (priority 2013, published 2016).

Test system: HCV genotype-1a variant with glutamine 30 changed to glutamate in the NS5A protein
Type: cell-based
Conditions: test compound titrated with BMS-790052 fixed at 200 nM; genotype 1a Q30E replicon
In short: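 Synergy was assessed by combining several fixed amounts of an NS5A-targeting compound with a titration of the second compound of interest.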

SMILES	Fold-Synergistic 1a (Q30E) [fold]
CC1(C(=O)N[C@H](c2nc(-c3ccc(-c4ccc(-c5c[nH]c([C@@H](NC(=O)C6(C)CCCCC6O)C(C)(C)C)n5)cc4)cc3)c[nH]2)C(C)(C)C)CCCCC1O (single isomer, unassigned) [Compound Y-93]	>100
CC1(C(=O)N[C@H](c2nc(-c3ccc(-c4ccc(-c5c[nH]c([C@@H](NC(=O)C6(C)CCCCC6O)C(C)(C)C)n5)cc4)cc3)c[nH]2)C(C)(C)C)CCCCC1O (single isomer, unassigned) [Compound Y-94]	>100
CC(C)(C)[C@H](NC(=O)C1CC12CCC(F)(F)CC2)c1nc(-c2ccc(-c3ccc(-c4c[nH]c([C@@H](NC(=O)C5CC56CCC(F)(F)CC6)C(C)(C)C)n4)cc3)cc2)c[nH]1 (single isomer, unassigned) [Compound Y-95]	>100
CC1(C(=O)N[C@H](c2nc(-c3ccc(-c4ccc(-c5c[nH]c([C@@H](NC(=O)C6(C)CCCCC6O)C(C)(C)C)n5)cc4)cc3)c[nH]2)C(C)(C)C)CCCCC1O (single isomer, unassigned) [Compound Y-104]	>100
CC1(C(=O)N[C@H](c2nc(-c3ccc(-c4ccc(-c5c[nH]c([C@@H](NC(=O)C6(C)CCCCC6O)C(C)(C)C)n5)cc4)cc3)c[nH]2)C(C)(C)C)CCCCC1O (single isomer, unassigned) [Compound Y-105]	>100
CC1(C(=O)N[C@H](c2nc(-c3ccc(-c4ccc(-c5c[nH]c([C@@H](NC(=O)C6(C)CCCCC6O)C(C)(C)C)n5)cc4)cc3)c[nH]2)C(C)(C)C)CCCCC1O (single isomer, unassigned) [Compound Y-106]	>100
CC1(C)C2CCC(C(=O)N[C@H](c3nc(-c4ccc(-c5ccc(-c6c[nH]c([C@@H](NC(=O)C78CCC(C7)C(C)(C)C8O)C(C)(C)C)n6)cc5)cc4)c[nH]3)C(C)(C)C)(C2)C1O (single isomer, unassigned) [Compound Y-107]	>100
CC(C)(C)[C@H](NC(=O)C1(CO)CCCO1)c1nc(-c2ccc(-c3ccc(-c4c[nH]c([C@@H](NC(=O)C5(CO)CCCO5)C(C)(C)C)n4)cc3)cc2)c[nH]1 (single isomer, unassigned) [Compound Y-110]	>100
CC(C)(C)[C@H](NC(=O)C1(CO)CCCO1)c1nc(-c2ccc(-c3ccc(-c4c[nH]c([C@@H](NC(=O)C5(CO)CCCO5)C(C)(C)C)n4)cc3)cc2)c[nH]1 (single isomer, unassigned) [Compound Y-111]	>100
CC(C)(C)[C@H](NC(=O)C1(CO)CCCO1)c1nc(-c2ccc(-c3ccc(-c4c[nH]c([C@@H](NC(=O)C5(CO)CCCO5)C(C)(C)C)n4)cc3)cc2)c[nH]1 (single isomer, unassigned) [Compound Y-112]	>100
CC(C)[C@H](NC(=O)C12CCC(C1)C(C)(C)C2O)c1nc(-c2ccc(-c3ccc(-c4c[nH]c([C@@H](NC(=O)C56CCC(C5)C(C)(C)C6O)C(C)C)n4)cc3)cc2)c[nH]1 (single isomer, unassigned) [Compound Y-113]	>100
CC(C)[C@H](NC(=O)C12CCC(C1)C(C)(C)C2O)c1nc(-c2ccc(-c3ccc(-c4c[nH]c([C@@H](NC(=O)C56CCC(C5)C(C)(C)C6O)C(C)C)n4)cc3)cc2)c[nH]1 (single isomer, unassigned) [Compound Y-114]	>100
CC(C)[C@H](NC(=O)C12CCC(C1)C(C)(C)C2O)c1nc(-c2ccc(-c3ccc(-c4c[nH]c([C@@H](NC(=O)C56CCC(C5)C(C)(C)C6O)C(C)C)n4)cc3)cc2)c[nH]1 (single isomer, unassigned) [Compound Y-115]	>100
CC1(C)C2CCC(C(=O)N[C@H](c3nc(-c4ccc(-c5ccc(-c6c[nH]c([C@@H](NC(=O)C78CCC(C7)C(C)(C)C8O)C7(C)CC7)n6)cc5)cc4)c[nH]3)C3(C)CC3)(C2)C1O (single isomer, unassigned) [Compound Y-117]	>100
CC1(C)C2CCC(C(=O)N[C@H](c3nc(-c4ccc(-c5ccc(-c6c[nH]c([C@@H](NC(=O)C78CCC(C7)C(C)(C)C8O)C7(C)CC7)n6)cc5)cc4)c[nH]3)C3(C)CC3)(C2)C1O (single isomer, unassigned) [Compound Y-118]	>100
CC1(C)C2CCC(C(=O)N[C@H](c3nc(-c4ccc(-c5ccc(-c6c[nH]c([C@@H](NC(=O)C78CCC(C7)C(C)(C)C8O)C7(C)CC7)n6)cc5)cc4)c[nH]3)C3(C)CC3)(C2)C1O (single isomer, unassigned) [Compound Y-119]	>100
CC(C)(C)[C@H](NC(=O)C1CCC(F)(F)CC1)c1ncc(C#Cc2ccc3cc(-c4cnc([C@@H](NC(=O)C5CCC(F)(F)CC5)C(C)(C)C)[nH]4)ccc3c2)[nH]1 [Compound B1]	>100
CC(C)(C)C(=O)N[C@H](c1ncc(C#Cc2ccc3cc(-c4cnc([C@@H](NC(=O)C(C)(C)C)C(C)(C)C)[nH]4)ccc3c2)[nH]1)C(C)(C)C [Compound B2]	>100
CC(C)(C)[C@H](NC(=O)c1cccc(Cl)c1)c1ncc(C#Cc2ccc3cc(-c4cnc([C@@H](NC(=O)c5cccc(Cl)c5)C(C)(C)C)[nH]4)ccc3c2)[nH]1 [Compound B3]	>100

SMILES	Fold-Synergistic 1a (Q30E) [fold]
CC(C)(C)[C@H](NC(=O)C(C)(C)C1(O)CCC(F)(F)CC1)c1ncc(C#Cc2ccc3cc(-c4cnc([C@@H](NC(=O)C(C)(C)C5(O)CCC(F)(F)CC5)C(C)(C)C)[nH]4)ccc3c2)[nH]1 [Compound B5A]	>100
CC(C)(C)[C@H](NC(=O)C1(C2(O)CCC(F)(F)CC2)CC1)c1ncc(C#Cc2ccc3cc(-c4cnc([C@@H](NC(=O)C5(C6(O)CCC(F)(F)CC6)CC5)C(C)(C)C)[nH]4)ccc3c2)[nH]1 [Compound B5B]	>100
COC(=O)N(C)C1(C(=O)N[C@H](c2ncc(C#Cc3ccc4cc(-c5cnc([C@@H](NC(=O)C6(N(C)C(=O)OC)CC6)C(C)(C)C)[nH]5)ccc4c3)[nH]2)C(C)(C)C)CC1 [Compound B5]	>100
CC(C)(C)[C@H](NC(=O)C1CCC(F)(F)CC1)c1ncc(CCc2ccc3cc(-c4cnc([C@@H](NC(=O)C5CCC(F)(F)CC5)C(C)(C)C)[nH]4)ccc3c2)[nH]1 [Compound B6]	>100
CC(C)(C)[C@H](NC(=O)C1CCC(F)(F)CC1)c1nc(-c2ccc(-c3ccc4c(c3)CCc3nc([C@@H](NC(=O)C5CCC(F)(F)CC5)C(C)(C)C)[nH]c3-4)cc2)c[nH]1 [Compound B10]	>100
CC(C)(C)[C@H](NC(=O)C1(C2(O)CCC(F)(F)CC2)CC1)c1nc(-c2ccc(-c3ccc4c(c3)CCc3nc([C@@H](NC(=O)C5(C6(O)CCC(F)(F)CC6)CC5)C(C)(C)C)[nH]c3-4)cc2)c[nH]1 [Compound B13B]	>100
CC(C)(C)[C@H](NC(=O)C1CCC(F)(F)CC1)c1ncc(-c2ccc(-c3ccc4c(ccc5nc([C@@H](NC(=O)C6CCC(F)(F)CC6)C(C)(C)C)[nH]c54)c3)cc2)[nH]1 [Compound B17]	>100
CC(C)(C)[C@H](NC(=O)C1CCC(F)(F)CC1)c1nc2c([nH]1)-c1ccc(-c3ccc4c(c3)CCc3nc([C@@H](NC(=O)C5CCC(F)(F)CC5)C(C)(C)C)[nH]c3-4)cc1CC2 [Compound B23]	>100
CC(C)(C)[C@H](NC(=O)C1CCC(F)(F)CC1)c1nc2c([nH]1)-c1ccc(-c3ccc4c(ccc5nc([C@@H](NC(=O)C6CCC(F)(F)CC6)C(C)(C)C)[nH]c54)c3)cc1CC2 [Compound B24]	>100
CC(C)(C)[C@H](NC(=O)C1CCC(F)(F)CC1)c1nc2ccc3cc(-c4ccc5c(ccc6nc([C@@H](NC(=O)C7CCC(F)(F)CC7)C(C)(C)C)[nH]c65)c4)ccc3c2[nH]1 [Compound B25]	>100
CC(C)(C)[C@H](NC(=O)C1CCC(F)(F)CC1)c1ncc(-c2ccc3cc4cc(-c5cnc([C@@H](NC(=O)C6CCC(F)(F)CC6)C(C)(C)C)[nH]5)ccc4cc3c2)[nH]1 [Compound B26]	>100
CC(C)(C)C(=O)N[C@H](c1ncc(-c2ccc3cc4cc(-c5cnc([C@@H](NC(=O)C(C)(C)C)C(C)(C)C)[nH]5)ccc4cc3c2)[nH]1)C(C)(C)C [Compound B27]	>100
CC(=O)c1ccc2cc3cc(-c4cnc([C@@H](NC(=O)C5CCC(F)(F)CC5)C(C)(C)C)[nH]4)ccc3cc2c1 [Compound B28]	>100
CC(C)[C@H](NC(=O)C1CCC(F)(F)CC1)c1ncc(-c2ccc3cc4cc(-c5cnc([C@@H](NC(=O)C6CCC(F)(F)CC6)C(C)C)[nH]5)ccc4cc3c2)[nH]1.O=C(O)C(F)(F)F [Compound B29]	>100
CC(C)[C@H](NC(=O)C(C)(C)C)c1ncc(-c2ccc3cc4cc(-c5cnc([C@@H](NC(=O)C(C)(C)C)C(C)C)[nH]5)ccc4cc3c2)[nH]1.O=C(O)C(F)(F)F [Compound B30]	>100
CC(C)(C)[C@H](NC(=O)C1CCC(F)(F)CC1)c1nc2ccc(-c3ccc(-c4ccc5nc([C@@H](NC(=O)C6CCC(F)(F)CC6)C(C)(C)C)[nH]c5c4)cc3)cc2[nH]1 [Compound B32]	>100
CC(C)(C)C(=O)N[C@H](c1nc2ccc(-c3ccc(-c4ccc5nc([C@@H](NC(=O)C(C)(C)C)C(C)(C)C)[nH]c5c4)cc3)cc2[nH]1)C(C)(C)C.O=C(O)C(F)(F)F [Compound B33]	>100
CC(C)(C)[C@H](NC(=O)C1CCC(F)(F)CC1)c1nc2ccc(C#Cc3ccc4nc([C@@H](NC(=O)C5CCC(F)(F)CC5)C(C)(C)C)[nH]c4c3)cc2[nH]1 [Compound B38]	>100
CC(C)(C)C(=O)N[C@H](c1nc2ccc(C#Cc3ccc4nc([C@@H](NC(=O)C(C)(C)C)C(C)(C)C)[nH]c4c3)cc2[nH]1)C(C)(C)C.O=C(O)C(F)(F)F [Compound B39]	>100
